≈ marks a conversion by molar mass, not a printed value. A value given as a limit tells only on which side of the number the result lay.

The target in one data set is T1, glucocerebrosidase (Gcase) (Homo sapiens, UniProt P04062).
T1 sequence (P04062 40-536): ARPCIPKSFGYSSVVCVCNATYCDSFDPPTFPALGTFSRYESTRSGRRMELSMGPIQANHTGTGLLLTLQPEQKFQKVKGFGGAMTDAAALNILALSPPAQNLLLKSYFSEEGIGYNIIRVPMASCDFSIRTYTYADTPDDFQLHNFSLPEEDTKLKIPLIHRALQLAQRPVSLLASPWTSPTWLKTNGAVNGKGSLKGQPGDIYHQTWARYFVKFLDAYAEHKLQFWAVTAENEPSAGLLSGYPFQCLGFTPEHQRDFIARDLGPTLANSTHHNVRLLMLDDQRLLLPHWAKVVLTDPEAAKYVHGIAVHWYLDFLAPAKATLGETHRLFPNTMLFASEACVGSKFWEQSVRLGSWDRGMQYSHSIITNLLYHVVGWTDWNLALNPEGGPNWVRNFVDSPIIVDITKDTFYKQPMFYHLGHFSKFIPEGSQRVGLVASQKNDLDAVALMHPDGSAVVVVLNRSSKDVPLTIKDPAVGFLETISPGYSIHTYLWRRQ
The data set can be described thus: Glucocerebrosidase (Gcase) activation assay, 4-methylumbelliferyl-beta-D-glucopyranoside substrate with saposin C. Format: biochemical. Conditions: 0.1 μM test compound; 10 nM GCase, 100 nM saposin C, pH 4.7; read-out: Percent Gease Activation 0.1 μM Test Compound. The method, then:
The ability of exemplary compounds to activate glucocerebrosidase (Gcase) was measured.
A 484 μL aliquot of a 1.0 mg/mL solution of phosphatidylserine (PS) (Sigma P7769) in chloroform was evaporated under a stream of nitrogen for 1 hour. The lipid film was dissolved over 4 minutes of vigorous vortexing in 40 mL of 176 mM K2HPO4/50 mM citric acid (pH 4.7) containing 7.5 μL of triton X-100, resulting in a mixed micellar preparation with a composition of 0.32 mM triton and 0.37 mol % PS. 4-Methylumbelliferyl-beta-D-glucopyranoside (ACROS-337025000) was dissolved in the micellar solution to a final concentration of 2 mM for use as the reaction substrate.
Test compounds were diluted to the desired concentrations with dimethylsulfoxide (DMSO) from 10 mM stocks, and 0.41 μL of the DMSO compound mixture was added to 100 μL of micellar solution containing 10 nM GCase and 100 nM saposin C (Enzo ALX-201-262-C050). Pre-incubation was allowed to occur for 30 minutes at room temperature, after which the reaction was initiated by combining 25 μL of substrate solution with 25 μL of compound/GCase/saposin mixture. The reaction proceeded for 15 minutes at room temperature and was stopped by adding 150 μL of 1M glycine, pH 12.5. The endpoint of the reaction was monitored by measuring fluorescence intensity (excitation: 365 nm; emission: 440 nm) on a SpectraMax i3 instrument (Molecular Devices). […]
`CCCCCOC1CCC(NC(=O)c2ncc3c(C)cc(C)nn23)CC1` (centres unmarked): the activation at 0.1 µM was 5 to 20%.

Still in this data set, the particulars now being: 1 μM test compound; 10 nM GCase, 100 nM saposin C, pH 4.7; read-out: Percent Gease Activation 1 μM Test Compound.
`CCCCCOC1CCC(NC(=O)c2ncc3c(C)cc(C)nn23)CC1` (centres unmarked): the activation at 1 µM was greater than 20%.

System in another data set: not listed separately
The data set can be described thus: Compound solubility in water.
Conditions: not given
Format: physicochemical.
As to `Cc1cc(-c2cccc(C#N)c2)nn2c(C(=O)NC(C3CC3)C(F)(F)F)cnc12` (centres unmarked), the solubility (as a rule, the dissolved amount per volume that the medium holds) amounted to 0.2 µg/mL (≈ 0.501 µM). The compound `Cc1cc(-c2cccc(F)c2C#N)nn2c(C(=O)N[C@@H](C)C3CC3)cnc12` [(S)-6-(2-Cyano-3-fluorophenyl)-N-(1-cyclopropylethyl)-8-methylimidazo[1,2-b]pyridazine-3-carboxamide] returned a solubility of 0.5 µg/mL (≈ 1.38 µM). `C#Cc1ccc(NC(=O)c2cnc3ccc(Cl)nn23)cc1`: the solubility stood at 15 µg/mL (≈ 50.6 µM).

In turn, `Cc1cc(-c2cncc(Cl)c2)nn2c(C(=O)N[C@@H](C3CC3)C(F)(F)F)cnc12` registered a solubility of 0.3 µg/mL (≈ 0.732 µM). The same measure, in the same setting: next, `Cc1cc(-c2cccc(F)c2)nn2c(C(=O)NC(C)(C)C3CC3)cnc12`: 1.9 µg/mL (≈ 5.39 µM).

In turn, `Cc1cc2ncc(C(=O)NC3CCCc4ccccc43)n2nc1Cl` (centres unmarked) returned a solubility of 3.6 µg/mL (≈ 10.6 µM).

The compound `Cc1cc(-c2cccc(F)c2)nn2c(C(=O)N[C@@H](C3CC3)C(F)(F)F)ncc12` [(S)—N-(1-Cyclopropyl-2,2,2-trifluoroethyl)-2-(3-fluorophenyl)-4-methylimidazo[1,5-b]pyridazine-7-carboxamide] came in with a solubility of 0.2 µg/mL (≈ 0.51 µM). The same measure, in the same setting: under `Cc1cc(-c2ccc3ocnc3c2)nn2c(C(=O)NC(C)C(F)(F)F)cnc12` (centres unmarked) stands 1.3 µg/mL (≈ 3.34 µM). The same measure, in the same setting: next, `Cc1cc(-c2cncc(F)c2)nn2c(C(=O)NC(C3CC3)C(F)(F)F)cnc12` (centres unmarked): 1.3 µg/mL (≈ 3.3 µM); `Cc1cc(-c2cccnc2)nc2c(C(=O)NC(C3CC3)C(F)(F)F)csc12` (centres unmarked): 0.5 µg/mL (≈ 1.28 µM). `Cc1cc(-c2cncc(Cl)c2)nn2c(C(=O)N[C@@H](C3CC3)C(F)(F)F)ncc12` [(S)-2-(5-Chloropyridin-3-yl)-N-(1-cyclopropyl-2,2,2-trifluoroethyl)-4-methylimidazo[1,5-b]pyridazine-7-carboxamide] returned a solubility of 0.7 µg/mL (≈ 1.71 µM). For `Cc1cc(-c2cncc(Cl)c2)nn2c(C(=O)N[C@H](C3CC3)C(F)(F)F)cnc12`, the concentration in solution (solubility) came to 0.3 µg/mL (≈ 0.732 µM). For the compound `Cc1cc(-c2cccc(C(N)=O)c2)nc2c(C(=O)NC(C3CC3)C(F)(F)F)csc12` (centres unmarked), the concentration in solution (solubility) came to 0.4 µg/mL (≈ 0.923 µM). Still for that read-out and setting: under `CCC(NC(=O)c1cnc2ccc(Cl)nn12)c1ccccc1` (centres unmarked) stands 15.4 µg/mL (≈ 49.1 µM).

For the compound `Cc1cc(N2CCCC(F)(F)C2)nn2c(C(=O)N[C@@H](C3CC3)C(F)(F)F)cnc12`, the solubility came out at 1.9 µg/mL (≈ 4.55 µM).

Compound `Cc1cc(-c2ccc3ocnc3c2)nn2c(C(=O)NC(C3CC3)C(F)(F)F)cnc12` (centres unmarked) registered a solubility of 0.2 µg/mL (≈ 0.481 µM). For `COc1cccc(-c2cc(C)c3ncc(C(=O)NC(C4CC4)C(F)(F)F)n3n2)c1` (centres unmarked), the concentration in solution (solubility) was 1.4 µg/mL (≈ 3.46 µM).

For `C#Cc1ccc(NC(=O)c2ncc3c(C)cc(C)nn23)cc1`, the solubility was determined as 1.8 µg/mL (≈ 6.2 µM). Same read-out and setting: under `Cc1cc(-c2ccc(F)cc2)nn2c(C(=O)NC(C)(C)C3CC3)ncc12` stands 1.2 µg/mL (≈ 3.41 µM); under `Cc1cc(-c2ccc(F)cc2)nn2c(C(=O)NC(C)C(F)(F)F)ncc12` (centres unmarked), 3.2 µg/mL (≈ 8.74 µM). `C#CC(NC(=O)c1ncc2c(C)cc(-c3cccc(F)c3)nn12)C(F)(F)F` (centres unmarked) [2-(3-Fluorophenyl)-4-methyl-N-(1,1,1-trifluorobut-3-yn-2-yl)imidazo[1,5-b]pyridazine-7-carboxamide]: the concentration in solution (solubility) came to 0.7 µg/mL (≈ 1.86 µM).

`Cc1cc(-c2ccns2)nn2c(C(=O)NC(C3CC3)C(F)(F)F)cnc12` (centres unmarked) showed a solubility of 0.5 µg/mL (≈ 1.31 µM).

In turn, `Cc1cc(-c2cccnc2)nc2c(C(=O)NC(C3CC3)C(F)(F)F)nsc12` (centres unmarked) came in with a solubility of 0.3 µg/mL (≈ 0.765 µM). For `Cc1cc(-c2cccc(C(N)=O)c2)nc2c(C(=O)NC(C3CC3)C(F)(F)F)nsc12` (centres unmarked), the concentration in solution (solubility) was 1.4 µg/mL (≈ 3.22 µM).

In turn, `CCC(NC(=O)c1cnc2c(C)cc(C)nn12)c1ccccc1` (centres unmarked) registered a solubility of 18.8 µg/mL (≈ 61 µM).

Consider `Cc1cc(-c2ccns2)nn2c(C(=O)NC(C)(C)C3CC3)cnc12`, for which the solubility was 6.7 µg/mL (≈ 19.6 µM). As to `Cc1cc(-c2ccc3ocnc3c2)nn2c(C(=O)NC(C)C3CC3)cnc12` (centres unmarked), the solubility stood at 1.4 µg/mL (≈ 3.87 µM).

(Values after patent US9868742B2, “Substituted imidazo[1,2-b]pyridazines, substituted imidazo[1,5-b] pyridazines, related compounds, and their use in the treatment of medical disorders” (Lysosomal Therapeutics Inc., priority 2016, dated 2018).)
